Columns and labels:
TRKA kinase = TRKA kinase (Homo sapiens (Human), UniProt P04629); assay: Assay of small molecular compounds for inhibiting the activity of TRKA kinase (LANCE TR-FRET); assay type: biochemical
How it was run: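 TRKA (supplied as 2 nM 2× solution) was pre-reacted with compounds for 5 min at room temperature before a 4× ULight-TK peptide/ATP mix (400 nM/40 μM) started the 60-min dark reaction at 1% DMSO. After stop and 60-min detection, TR-FRET was read.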

c-MET kinase = c-MET kinase (Homo sapiens (Human), UniProt P08581); assay: Assay of small molecular compounds for inhibiting the activity of c-MET kinase (LANCE TR-FRET); assay type: biochemical; details: read-out: CMET IC50
c-MET kinase, sequence (P08581 25-1390): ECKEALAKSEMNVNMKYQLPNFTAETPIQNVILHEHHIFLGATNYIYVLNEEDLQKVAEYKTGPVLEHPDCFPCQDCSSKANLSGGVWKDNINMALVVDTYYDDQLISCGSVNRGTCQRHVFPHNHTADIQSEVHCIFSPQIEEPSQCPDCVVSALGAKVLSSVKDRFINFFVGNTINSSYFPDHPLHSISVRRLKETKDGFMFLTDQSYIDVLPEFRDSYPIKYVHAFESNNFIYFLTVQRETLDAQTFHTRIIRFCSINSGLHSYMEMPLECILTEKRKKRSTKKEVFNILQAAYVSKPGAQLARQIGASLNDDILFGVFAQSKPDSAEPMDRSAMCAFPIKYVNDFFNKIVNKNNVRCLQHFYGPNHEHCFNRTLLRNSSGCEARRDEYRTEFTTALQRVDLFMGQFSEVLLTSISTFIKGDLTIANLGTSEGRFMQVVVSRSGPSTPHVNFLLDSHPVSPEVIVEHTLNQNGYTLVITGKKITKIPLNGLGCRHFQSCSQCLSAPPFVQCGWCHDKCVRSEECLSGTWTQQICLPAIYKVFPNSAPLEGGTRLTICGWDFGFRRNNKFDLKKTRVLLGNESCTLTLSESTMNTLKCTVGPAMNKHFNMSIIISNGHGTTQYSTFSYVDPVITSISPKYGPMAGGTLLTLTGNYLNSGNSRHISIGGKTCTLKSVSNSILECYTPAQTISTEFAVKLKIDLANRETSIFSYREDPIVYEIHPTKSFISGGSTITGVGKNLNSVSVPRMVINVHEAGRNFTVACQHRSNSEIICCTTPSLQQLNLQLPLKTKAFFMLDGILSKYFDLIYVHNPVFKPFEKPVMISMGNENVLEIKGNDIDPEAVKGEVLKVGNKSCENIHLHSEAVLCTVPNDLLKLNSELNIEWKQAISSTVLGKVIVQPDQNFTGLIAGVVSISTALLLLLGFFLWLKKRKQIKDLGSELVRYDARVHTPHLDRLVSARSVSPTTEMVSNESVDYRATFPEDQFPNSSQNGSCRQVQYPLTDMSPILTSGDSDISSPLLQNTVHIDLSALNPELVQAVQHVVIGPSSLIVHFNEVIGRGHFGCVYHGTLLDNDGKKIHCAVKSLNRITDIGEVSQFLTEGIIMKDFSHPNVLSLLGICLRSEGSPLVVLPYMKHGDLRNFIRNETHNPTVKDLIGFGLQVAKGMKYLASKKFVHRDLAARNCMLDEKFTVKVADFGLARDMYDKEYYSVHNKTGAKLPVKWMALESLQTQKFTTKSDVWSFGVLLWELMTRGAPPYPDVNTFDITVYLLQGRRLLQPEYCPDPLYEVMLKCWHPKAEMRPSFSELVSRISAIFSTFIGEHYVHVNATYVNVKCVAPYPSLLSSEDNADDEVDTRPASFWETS
How it was run: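 Eleven final concentrations from 2500 nM down to 0.042 nM, in 4% DMSO, were tested against human c-MET (2× stock 2 nM), with compound and enzyme premixed for 5 min. The phosphorylation reaction used 4× stock of 400 nM ULight-JAK-1 peptide and 40 μM ATP for 60 min at room temperature, then stop and detection steps. TR-FRET percent inhibition against positive and negative controls gave the IC50.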

TRKA kinase, sequence (P04629 33-796): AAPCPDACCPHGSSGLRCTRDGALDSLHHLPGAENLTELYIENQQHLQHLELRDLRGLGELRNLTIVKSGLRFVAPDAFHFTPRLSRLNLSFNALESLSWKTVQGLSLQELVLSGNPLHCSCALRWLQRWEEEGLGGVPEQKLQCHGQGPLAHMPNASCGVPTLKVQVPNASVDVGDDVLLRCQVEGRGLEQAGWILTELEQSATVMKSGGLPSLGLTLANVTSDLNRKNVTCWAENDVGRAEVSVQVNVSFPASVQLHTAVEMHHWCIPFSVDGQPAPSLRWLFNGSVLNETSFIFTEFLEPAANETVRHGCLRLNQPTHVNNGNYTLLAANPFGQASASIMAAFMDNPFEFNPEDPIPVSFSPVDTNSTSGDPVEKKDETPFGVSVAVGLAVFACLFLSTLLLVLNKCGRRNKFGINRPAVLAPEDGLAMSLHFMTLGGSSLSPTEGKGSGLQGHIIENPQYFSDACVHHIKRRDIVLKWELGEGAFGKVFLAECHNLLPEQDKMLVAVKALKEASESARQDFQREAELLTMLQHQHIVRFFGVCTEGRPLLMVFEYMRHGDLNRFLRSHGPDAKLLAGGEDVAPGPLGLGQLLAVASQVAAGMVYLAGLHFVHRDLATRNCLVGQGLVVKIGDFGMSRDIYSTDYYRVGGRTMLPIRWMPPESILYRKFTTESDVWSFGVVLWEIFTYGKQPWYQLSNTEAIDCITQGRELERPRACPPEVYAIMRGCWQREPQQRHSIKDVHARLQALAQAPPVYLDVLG

| IC50 (TRKA kinase) [µM] | IC50 (c-MET kinase) [µM] | Structure (SMILES) |
| --- | --- | --- |
| < 0.05 | ≤ 0.05 | O=C(Nc1ccc(Oc2ncnc3cc(OCCCN4CCOCC4)c4c(c23)OCCO4)c(F)c1)c1cccn(-c2ccc(F)cc2)c1=O [Example 4, N-(3-fluoro-4-((5-(3-morpholinopropoxy)-2,3-dihydro-[1,4]dioxino[2,3-f]quinazolin-10-yl)oxy)phenyl)-1-(4-fluorophenyl)-2-oxo-1,2-dihydropyridine-3-carboxamide] |
| < 0.05 | ≤ 0.05 | COc1ccn(-c2ccc(F)cc2)c(=O)c1C(=O)Nc1ccc(Oc2ncnc3cc(OCCCN4CCOCC4)c4c(c23)OCCO4)c(F)c1 [Example 5, N-(3-fluoro-4-((5-(3-morpholinopropoxy)-2,3-dihydro-[1,4]dioxino[2,3-f]quinazolin-10-yl)oxy)phenyl)-1-(4-fluorophenyl)-4-methoxy-2-oxo-1,2-dihydropyridine-3-carboxamide] |
| 0.05 to 0.5 | ≤ 0.05 | COc1cc2nccc(Oc3ccc(NC(=O)c4cn(CCCO)c(=O)n(-c5ccc(F)cc5)c4=O)cc3F)c2c2c1OCCO2 [Example 99, N-(3-fluoro-4-((5-methoxy-2,3-dihydro-[1,4]dioxino[2,3-f]quinolin-10-yl)oxy)phenyl)-3-(4-fluorophenyl)-1-(3-hydroxypropyl)-2,4-dioxo-1,2,3,4-tetrahydropyrimidine-5-carboxamide] |
| 0.05 to 0.5 | ≤ 0.05 | C=CCn1cc(C(=O)Nc2ccc(Oc3ccnc4cc(OC)c5c(c34)OCCO5)c(F)c2)c(=O)n(-c2ccc(F)cc2)c1=O [Example 100, N-(3-fluoro-4-((5-methoxy-2,3-dihydro-[1,4]dioxino[2,3-f]quinolin-10-yl)oxy)phenyl)-3-(4-fluorophenyl)-1-allyl-2,4-dioxo-1,2,3,4-tetrahydropyrimidine-5-carboxamide] |
| 0.05 to 0.5 | ≤ 0.05 | COc1cc2nccc(Oc3ccc(NC(=O)c4cn(CCF)c(=O)n(-c5ccc(F)cc5)c4=O)cc3F)c2c2c1OCCO2 [Example 101, N-(3-fluoro-4-((5-methoxy-2,3-dihydro-[1,4]dioxino[2,3-f]quinolin-10-yl)oxy)phenyl)-3-(4-fluorophenyl)-1-(2-fluoroethyl)-2,4-dioxo-1,2,3,4-tetrahydropyrimidine-5-carboxamide] |
| 0.05 to 0.5 | 0.05 to 0.5 | CC(C)n1cc(C(=O)Nc2ccc(Oc3ccnc4cc(OCC5(N)CC5)c5c(c34)OCCO5)c(F)c2)c(=O)n(-c2ccc(F)cc2)c1=O [Example 106, N-(3-fluoro-4-((5-((1-aminocyclopropyl)methoxy)-2,3-dihydro-[1,4]dioxino[2,3-f]quinolin-1 0-yl)oxy)phenyl)-3-(4-fluorophenyl)-1-isopropyl-2,4-dioxo-1,2,3,4-tetrahydropyrimidine-5-carboxamide] |
| 0.05 to 0.5 | ≤ 0.05 | CCOc1ccn(-c2cccc(F)c2)c(=O)c1C(=O)Nc1ccc(Oc2ccnc3cc(OC)c4c(c23)OCCO4)c(F)c1 [Example 114, N-(3-fluoro-4-((5-methoxy-2,3-dihydro-[1,4]dioxino[2,3-f]quinolin-10-yl)oxy)phenyl)-2-oxo-4-ethoxy-1-(3-fluorophenyl)-1,2-dihydropyridin-3-carboxamide] |
| 0.05 to 0.5 | ≤ 0.05 | CCOc1ccn(Cc2ccccc2)c(=O)c1C(=O)Nc1ccc(Oc2ccnc3cc(OC)c4c(c23)OCCO4)c(F)c1 [Example 117, N-(3-fluoro-4-((5-methoxy-2,3-dihydro-[1,4]dioxino[2,3-f]quinolin-10-yl)oxy)phenyl)-2-oxo-4-ethoxy-1-benzyl-1,2-dihydropyridin-3-carboxamide] |
| 0.05 to 0.5 | 0.05 to 0.5 | Cn1cc(C(=O)Nc2ccc(Oc3ccnc4cc(OCC(C)(C)O)c5c(c34)OCCO5)c(F)c2)c(=O)n(-c2ccc(F)cc2)c1=O [Example 121, N-(3-fluoro-4-((5-(2-hydroxy-2-methylpropoxy)-2,3-dihydro-[1,4]dioxino[2,3-f]quinolin-10-yl)oxy)phenyl)-3-(4-fluorophenyl)-1-methyl-2,4-dioxo-1,2,3,4-tetrahydropyrimidine-5-carboxamide] |
